From patent US20020058077A1, “Cancer chemotherapeutical and chemopreventive agent” (priority 2000, published 2002)
*1 amine or outer side, *2 acyl side, *3 side chain or, on linkers, in order; H or OH if unused. Where a SMILES comes first, the peptide text is derived from it. Bridges are numbered along the chain shown (N, C = ends). Roman numbers before positions name the chains, in order. [ ]: non-standard residue; d: D form. Actinocin(9to1) = Cc1c2oc3c(C)ccc(C(=O)[*:1])c3nc-2c(C(=O)[*:2])c(N)c1=O; NMeV = CN[C@H](C(=O)O)C(C)C; Sar = CNCC(=O)O

Columns and labels:
COX-2 [1] = assay: RT-PCR analysis of COX-2 mRNA in TNF-α treated CNE1 cells; settings: Act D 5 μg/ml × 30 min; TNF-α 15 ng/ml × 6 h
Description: (§1) TNF-α (final concentration 15 ng/ml) was used as the positive stimulus to promote NF-κB activation in cultured cells.
RNA extraction was carried out using a total RNA extraction kit (TRIzol, Life Technologies). Briefly, cells were collected by scrapping after various treatments and washed with cold PBS once before they were lysed in the TRIzol reagent. […] Finally the RNA samples were dissolved in DEPC-H2O and quantified (1 A260=40 μg/ml). Five micrograms of total RNA from each sample were subjected to reverse transcription using Superscript II reverse transcriptase (Life Technologies) in a total volume of 50 μl. For PCR, all the amplification reactions were carried out in 20 μl which included 200 pmol of each primers, 200 μM of each dNTPs, and 0.5 units of DyNAzyme II. The PCR was performed for 30 cycles, using a program of 95° C. for 30 sec, 57° C. for 30 sec, and 72° C. for 30 sec, followed by a 10 min extension at 72° C., in a Biometra T-gradient Thermal Cycler. […] The PCR conditions were optimised to achieve exponential amplification in which the PCR product formation is proportional to the starting cDNA.

CNE1 cells = settings: for apoptotic cell death in TNF-α treated cells after pretreatment: PDTC 25 μM, Act D 5 μg/ml, CHX 5 μg/ml or NS398 10 μM × 30 min
Description: as §1
Apoptosis was determined by the following assays: (i) cell morphological alterations examined under an inverted microscope, (ii) PARP cleavage determined by western blot, and (iii) TUNEL assay which was analysed using both flow cytometry and confocal microscope (Shen et al., 2000), in both attached and detached cells after various treatments.

NF-κB = NF-κB luciferase reporter gene assay in transfected CNE1 cells; assay type: cell-based, human; settings: PDTC 25 μM, Act D 5 μg/ml or CHX 5 μg/ml × 30 min; TNF-α 15 ng/ml × 24 h; order PDTC <Act D <CHX
Description: The pNF-κB-luc vector and the negative control pTAL-luc vector were purchased as part of the Mercury Pathway Profiling Luciferase System from Clontech Laboratories. […] The transient transfection of the above plasmids into cultured CNE1 cells were performed using TransFast™ Transfection Reagent (Promega) according to the manufacturer's protocol. Briefly, when cells reached about 80% confluence in 24-well plates (approximately 10×10^4 cells per well in 0.5 ml culture medium), the growth medium from each well was removed by aspiration. […] After incubated for 1 h at 37° C., 300 μl of prewarmed complete medium was added into each well and incubated for 24 h. Transfected cells were then subjected to various treatments. The luciferase activity was measured in the cellular extracts using a luciferase assay kit (Promega). Following the treatment, the cell lysate was collected from each well after the addition of 1× cell culture lysis reagent (50 μl/well, Promega). The relative light units (RLU) were then determined in a luminometer (Lumi-one, Trans Orchid, Tampa, Fla.) for a total period of 15 sec after a 5 sec delay time.

COX-2 [2] = assay: COX-2 protein level in TNF-α treated CNE1 cells by western blot; settings: CHX 5 μg/ml × 30 min; TNF-α 15 ng/ml × 24 h
Description: as §1
Various cell extracts (cytosolic, nuclear or whole cell) were prepared as described earlier. Equal amounts (30 μg) of protein were separated on SDS-polyacrylamide gel in the Mini-PROTEAN II system (Bio-Rad). After electrophoresis, the protein was transferred onto a Hybond-C nitrocellulose membrane (Amersham) at 4° C. using the Mini Trans-Blot Module (Bio-Rad). The membrane was blocked overnight with 5% nonfat milk in TBST (10 mM Tris-HCl, pH 7.5, 100 mM NaCl, 0.1% Tween 20), and then incubated with various primary antibodies for 2 h at room temperature. After 5 washes with TBST, the membrane was exposed to respective secondary antibodies for 1 h. The blots were detected using the enhanced chemiluminescence method (Pierce).

PGE2 production = assay: PGE2 level released from CNE1 cells by enzyme immunoassay (EIA); assay type: cell-based, human
Description: The PGE2 level in the cell culture medium after various treatments was determined using an EIA kit (Cayman) according to protocol from the manufacturer. Each sample was assayed at two dilutions and each dilution in triplets. The results were presented as the fold of increase comparing to that of the control group.

[3] = Act D 5 μg/ml × 30 min pretreatment, then TNF-α 15 ng/ml × 24 h

Row | SMILES | COX-2 mRNA level (COX-2 [1]) | PARP cleavage (CNE1 cells; [3]) | detached apoptotic cells (CNE1 cells; [3]) | apoptotic cell death in TNF-α treated cells after pretreatment (CNE1 cells; then TNF-α 15 ng/ml × 24 h) | NF-κB dependent transcription (luciferase) (NF-κB) | COX-2 protein level (COX-2 [2]) | PGE2 production (PGE2 production; NS398 10 μM × 30 min, TNF-α 15 ng/ml × 24 h) | potency for the inhibition of PGE2 production compared with parthenolide (PGE2 production; TNF-α treated CNE1 cells) | apoptosis induction compared with parthenolide (CNE1 cells; TNF-α treated CNE1 cells)
1 | Cc1c2oc3c(C)ccc(C(=O)N[C@@H]4C(=O)N[C@H](C(C)C)C(=O)N5CCC[C@H]5C(=O)N(C)CC(=O)N(C)[C@@H](C(C)C)C(=O)O[C@@H]4C)c3nc-2c(C(=O)N[C@@H]2C(=O)N[C@H](C(C)C)C(=O)N3CCC[C@H]3C(=O)N(C)CC(=O)N(C)[C@@H](C(C)C)C(=O)O[C@@H]2C)c(N)c1=O [Act D, actinomycin D] (I: T[dV]P[Sar][NMeV] / II: T[dV]P[Sar][NMeV]; ester I:1-I:C, II:1-II:C; linker I:N-II:N via Actinocin(9to1)) | markedly reduced | complete cleavage | ~100% | severe apoptosis |  |  |  |  | 
2 | C[C@@H]1C[C@@H]([C@H](O)CC2CC(=O)NC(=O)C2)C(=O)[C@@H](C)C1 [CHX, cycloheximide] |  |  |  | severe apoptosis | capable of inhibiting | Significant reduction |  |  | 
3 | CS(=O)(=O)Nc1ccc([N+](=O)[O-])cc1OC1CCCCC1 [NS398] |  |  |  | significantly enhanced |  |  | completely abolished | higher potency | less effective
